# From ChEMBL document CHEMBL1139339, “Alantrypinone and its derivatives: synthesis and antagonist activity toward insect GABA receptors” (2009)
# Activity calls are given as the source filed them. The calls are words filed in the database; no cut-off is given here.
# Test system: Musca domestica
# Experiment: Displacement of [3H]EBOB from housefly GABA receptor
row,Activity,SMILES
1,Active,C[C@@]12NC(=O)[C@H]([C@H]3C(=O)N(c4ccccc4)C(=O)[C@H]31)n1c2nc2ccccc2c1=O (racemic)
2,Active,C[C@@]12NC(=O)[C@H](C[C@@]13C(=O)Nc1ccccc13)n1c2nc2cc(Cl)ccc2c1=O (racemic)
3,Active,CN1C(=O)[C@@H]2[C@H]3C(=O)N(c4ccccc4)C(=O)[C@H]3[C@]1(C)c1nc3ccccc3c(=O)n12 (racemic)
4,Active,C[C@@]12NC(=O)[C@H](C[C@]13C(=O)Nc1ccccc13)n1c2nc2cc(Cl)ccc2c1=O (racemic)
5,Active,C[C@@]12NC(=O)[C@H](C[C@@]13C(=O)Nc1ccccc13)n1c2nc2ccccc2c1=O (racemic)
6,Active,O=C1N[C@@]2(Cc3ccccc3)c3nc4ccccc4c(=O)n3[C@H]1C[C@]21C(=O)Nc2ccccc21 (racemic)
7,Active,CC(C)[C@@]12NC(=O)[C@H](C[C@]13C(=O)Nc1ccccc13)n1c2nc2ccccc2c1=O (racemic)
8,Active,C[C@@]12NC(=O)[C@H](C[C@@]13C(=O)Nc1ccccc13)n1c2nc2ccc(Cl)cc2c1=O (racemic)
9,Active,CN1C(=O)[C@@]2(C[C@H]3C(=O)N[C@@]2(C)c2nc4ccccc4c(=O)n23)c2ccccc21 (racemic)
10,Active,C[C@@]12NC(=O)[C@H](C[C@]13C(=O)Nc1ccc(Cl)cc13)n1c2nc2ccc(Cl)cc2c1=O (racemic)
11,Active,C[C@@]12NC(=O)[C@H](C[C@]13C(=O)Nc1ccccc13)n1c2nc2ccccc2c1=O (racemic)
12,Active,C[C@@]12NC(=O)[C@H](C[C@]13C(=O)Nc1ccccc13)n1c2nc2ccc(Cl)cc2c1=O (racemic)
13,Active,CN1C(=O)[C@@]2(C[C@H]3C(=O)N(C)[C@@]2(C)c2nc4ccccc4c(=O)n23)c2ccccc21 (racemic)
14,Active,CN1C(=O)[C@@H]2C[C@]3(C(=O)Nc4ccccc43)[C@]1(C)c1nc3ccccc3c(=O)n12 (racemic)
15,Active,C[C@@]12NC(=O)[C@H](C[C@]13C(=O)N(Cc1ccccc1)c1ccccc13)n1c2nc2ccccc2c1=O (racemic)
16,Active,C[C@@]12NC(=O)[C@H](C[C@@]13C(=O)Nc1ccc(Cl)cc13)n1c2nc2ccc(Cl)cc2c1=O (racemic)
17,Active,C[C@@]12NC(=O)[C@H](C[C@@]13C(=O)Nc1ccc(Cl)cc13)n1c2nc2ccccc2c1=O (racemic)
18,Active,C[C@@]12NC(=O)[C@H](C[C@]13C(=O)Nc1ccccc13)n1c2nc2ccc(F)cc2c1=O (racemic)
19,Active,C[C@@]12NC(=O)[C@H](C[C@@]13C(=O)N(Cc1ccccc1)c1ccccc13)n1c2nc2ccccc2c1=O (racemic)
20,Active,CC(C)[C@@]12NC(=O)[C@H](C[C@@]13C(=O)Nc1ccccc13)n1c2nc2ccccc2c1=O (racemic)
21,Active,C[C@@]12NC(=O)[C@H](C[C@]13C(=O)Nc1ccc(Cl)cc13)n1c2nc2ccccc2c1=O (racemic)
22,Active,CC(C)C[C@@]12NC(=O)[C@H](C[C@]13C(=O)Nc1ccccc13)n1c2nc2ccccc2c1=O (racemic)
23,Active,O=C1N[C@@]2(Cc3ccccc3)c3nc4ccccc4c(=O)n3[C@H]1C[C@@]21C(=O)Nc2ccccc21 (racemic)
24,Active,CN1C(=O)[C@]2(C[C@H]3C(=O)N[C@@]2(C)c2nc4ccccc4c(=O)n23)c2ccccc21 (racemic)
25,Active,CC(C)C[C@@]12NC(=O)[C@H](C[C@@]13C(=O)Nc1ccccc13)n1c2nc2ccccc2c1=O (racemic)
26,Active,CN1C(=O)[C@@H]2C[C@@]3(C(=O)N(Cc4ccccc4)c4ccccc43)[C@]1(C)c1nc3ccccc3c(=O)n12 (racemic)
27,Active,CN1C(=O)[C@]2(C[C@H]3C(=O)N(C)[C@@]2(C)c2nc4ccccc4c(=O)n23)c2ccccc21 (racemic)
28,Active,C[C@@]12NC(=O)[C@H](C[C@@]13C(=O)Nc1ccccc13)n1c2nc2ccc(F)cc2c1=O (racemic)
29,Active,CN1C(=O)[C@@H]2C[C@]3(C(=O)N(Cc4ccccc4)c4ccccc43)[C@]1(C)c1nc3ccccc3c(=O)n12 (racemic)

# Test system: Neuron
# Experiment: Inhibition of GABA-induced inward current in Periplaneta americana L neuron at 10 uM for 5 min by whole-cell patch clamp method
# Format: functional
row,SMILES,inhibition at 10 µM [%]
1,C[C@@]12NC(=O)[C@H](C[C@]13C(=O)Nc1ccccc13)n1c2nc2ccccc2c1=O,90.3
